# *: point of attachment. NHNH2 = NN*
# What was measured:
# Assay type in all cases: cell-based
# Hela cells = assay: RLuc pDNA delivery, robotic library screening, HeLa; settings: Hela
# Description: Cells were seeded in a 96 well plate the day before the experiment at a concentration of 60,000 cell/mL (100 μL/w) in DMEM+10% FBS+1% Gln-Abt. For robotic library screening, the delivery of pDNA encoding for the expression of Renilla luciferase gene (RLuc, pRL-CMV (Promega, #E2261)) in six different cell lines was performed. […] The mixture was shaken for 30 min at room temperature before the addition to the cells. The cell medium was aspirated, and cells were washed twice with PBS. Finally, 50 μL of the complex's solution were added to the cells and incubated for 4 h. After the incubation, the medium was replaced by 100 μL of fresh DMEM supplemented with 10% FBS. 72 hours after transfection the DMEM was removed, cells were washed once with HBSS and 90 μL of HBSS were added to each well. Cells were incubated at 37° C. for 30 minutes. Then basal luminescence levels were read in a plate reader. Immediately, 10 μL of coelenterazine h in HBSS were added to each well (5 μM final concentration) and cells were incubated at 37° C. for 10 minutes. Finally, the total luminescence measurement of the plates was performed. Amphiphile transfection efficiency was compared and normalized to Lipofectamine® 2000 efficiency (value of 1 in Tables 1-5 and 7; bold numbers). All experiments were done in triplicate.
# (§1) Tables 1-7: RLuc (pDNA) or EGFP (mRNA) expression levels were normalized to Lipofectamine reagents (value=1) and expressed as fold-times signal increase. In the case of siRNA, the siRNA treated cells fluorescence was compared with siMOCK control fluorescence, while Cas9-RNP mediated knockout was measured against the fluorescence of untreated cells. In both siRNA and Cas9-RNP, values are expressed as % fluorescence reduction. Amphiphile concentration was 5 μM in all cases. All experiments were performed in triplicate.
# (§2) Tables 8-13 show the mean (triplicates) luminescent intensity (RLU) measured after the transfection of RLuc pDNA by different amphiphiles at different concentrations in a variety of cell lines. Background luminescence values, accounted by untransfected control cells, were subtracted for processing.
# Hek293 cells = assay: RLuc pDNA delivery, robotic library screening, Hek293
# HepG2 cells [1] = assay: RLuc pDNA delivery, robotic library screening, HepG2; settings: Oleyl
# Description: (§3) Cells were seeded in a 96 well plate the day before the experiment at a concentration of 60,000 cell/mL (100 μL/w) in DMEM+10% FBS+1% Gln-Abt. For robotic library screening, the delivery of pDNA encoding for the expression of Renilla luciferase gene (RLuc, pRL-CMV (Promega, #E2261)) in six different cell lines was performed. Amphihilic molecule stock solutions in DMSO were diluted with DMEM and freshly mixed with pDNA stock solutions in DMEM prior to transfection experiments, to afford several complexes at different amphiphile concentration (2-10 μM) while maintaining a constant final pDNA concentration of 2 ng/μL. The mixture was shaken for 30 min at room temperature before the addition to the cells. The cell medium was aspirated, and cells were washed twice with PBS. Finally, 50 μL of the complex's solution were added to the cells and incubated for 4 h. After the incubation, the medium was replaced by 100 μL of fresh DMEM supplemented with 10% FBS. 72 hours after transfection the DMEM was removed, cells were washed once with HBSS and 90 μL of HBSS were added to each well. Cells were incubated at 37° C. for 30 minutes. Then basal luminescence levels were read in a plate reader. Immediately, 10 μL of coelenterazine h in HBSS were added to each well (5 μM final concentration) and cells were incubated at 37° C. for 10 minutes. Finally, the total luminescence measurement of the plates was performed. Amphiphile transfection efficiency was compared and normalized to Lipofectamine® 2000 efficiency (value of 1 in Tables 1-5 and 7; bold numbers). All experiments were done in triplicate.
# as §1, §2
# ARPE19 cells = assay: RLuc pDNA delivery, robotic library screening, ARPE19
# HCT116 cells = assay: RLuc pDNA delivery, robotic library screening, HCT116
# A549 cells = assay: RLuc pDNA delivery, robotic library screening, A549
# Description: as §3, §1, §2
# HepG2 cells [2] = assay: EGFP mRNA delivery, robotic library screening, HepG2; settings: HepG2 cells
# Description: Cells were seeded in a 96 well plate the day before the experiment at a concentration of 50,000 cell/mL (100 μL/w) in DMEM+10% FBS+1% Gln-Abt. For robotic library screening, the delivery of EGFP-mRNA (from TriLink, fully substituted with 5-methoxyuridine, capped and polyadenylated; TriLink, CleanCap® EGFP mRNA (5moU), ref. L-7201) in six different cell lines was performed. Amphiphilic molecule stock solutions were prepared in DMSO as described above and diluted in DMEM to afford a range of concentrations. The solutions of EGFP-mRNA/amphiphilic molecule complexes were freshly prepared prior to the transfection experiments. 35 μL of the corresponding amphiphile were added to 10 μL of a solution of EGFP-mRNA at 10 ng/μL in DMEM. The mixture was shaken for 30 min at room temperature before the addition to the cells. The cell medium was aspirated, and cells were washed with PBS twice. […] After the incubation, the medium was replaced by 100 μL of fresh DMEM supplemented with 10% FBS. The total EGFP fluorescence was quantified after 72 h in a well plate reader. Amphiphile transfection efficiency was compared and normalized to Lipofectamine® MessengerMax efficiency (value of 1 in Tables 1-5 and 7; double underlined numbers). All experiments were done in triplicate.
# as §1
# Tables 14-19 show the mean (triplicates) fluorescence intensity measured after the transfection of EGFP mRNA by different amphiphiles at different concentrations in a variety of cell lines. Background fluorescence values, accounted by untreated control cells, were subtracted for processing.
Substance,"mean luminescent intensity (RLuc pDNA) (Hela cells; Myristoleyl, 5 μM) [RLU]","mean luminescent intensity (RLuc pDNA) (Hela cells; Myristoleyl, 10 μM) [RLU]","mean luminescent intensity (RLuc pDNA) (Hela cells; Myristoleyl, 15 μM) [RLU]","mean luminescent intensity (RLuc pDNA) (Hela cells; Petroselinyl, 5 μM) [RLU]","mean luminescent intensity (RLuc pDNA) (Hek293 cells; Palmitoleyl, 5 μM) [RLU]","mean luminescent intensity (RLuc pDNA) (Hek293 cells; Palmitoleyl, 10 μM) [RLU]","mean luminescent intensity (RLuc pDNA) (Hek293 cells; Petroselinyl, 5 μM) [RLU]","mean luminescent intensity (RLuc pDNA) (Hek293 cells; Petroselinyl, 10 μM) [RLU]",mean luminescent intensity (RLuc pDNA) (HepG2 cells [1]; 5 μM) [RLU],mean luminescent intensity (RLuc pDNA) (HepG2 cells [1]; 10 μM) [RLU],mean luminescent intensity (RLuc pDNA) (HepG2 cells [1]; 15 μM) [RLU],"mean luminescent intensity (RLuc pDNA) (ARPE19 cells; Myristoleyl, 5 μM) [RLU]","mean luminescent intensity (RLuc pDNA) (ARPE19 cells; Myristoleyl, 10 μM) [RLU]","mean luminescent intensity (RLuc pDNA) (ARPE19 cells; Myristoleyl, 15 μM) [RLU]","mean luminescent intensity (RLuc pDNA) (ARPE19 cells; Petroselinyl, 5 μM) [RLU]","mean luminescent intensity (RLuc pDNA) (HCT116 cells; Myristoleyl, 5 μM) [RLU]","mean luminescent intensity (RLuc pDNA) (HCT116 cells; Myristoleyl, 15 μM) [RLU]","mean luminescent intensity (RLuc pDNA) (HCT116 cells; Palmitoleyl, 5 μM) [RLU]","mean luminescent intensity (RLuc pDNA) (HCT116 cells; Petroselinyl, 5 μM) [RLU]","mean luminescent intensity (RLuc pDNA) (A549 cells; Oleyl, 5 μM) [RLU]",other results
"Ac-RK*RRK*K*R-NH2 (Ac-RK(NHNH2)RRK(NHNH2)K(NHNH2)R-NH2; not fully specified; printed as Ac-RK*RRK*K*R-NH2; also: K*2,K*5,K*6: native or modified lysine (ε-amide to a linker)) [7.3(L-R)]",3647,2076,22,4972,73751,115755,9983,59396,1696,22303,6498,522,20,56,2177,7939,−41,22225,2832,13651,"mean luminescent intensity (RLuc pDNA) (Hela cells; Palmitoleyl, 5 μM): 62538 RLU; mean luminescent intensity (RLuc pDNA) (Hela cells; Palmitoleyl, 10 μM): 25113 RLU; mean luminescent intensity (RLuc pDNA) (Hela cells; Palmitoleyl, 15 μM): 3405 RLU; mean luminescent intensity (RLuc pDNA) (Hek293 cells; Myristoleyl, 5 μM): 46216 RLU; mean luminescent intensity (RLuc pDNA) (Hek293 cells; Myristoleyl, 10 μM): 51837 RLU; mean luminescent intensity (RLuc pDNA) (Hek293 cells; Myristoleyl, 15 μM): 10351 RLU; mean luminescent intensity (RLuc pDNA) (Hek293 cells; Palmitoleyl, 15 μM): 29282 RLU; mean luminescent intensity (RLuc pDNA) (Hek293 cells; Petroselinyl, 15 μM): 8037 RLU; mean luminescent intensity (RLuc pDNA) (ARPE19 cells; Palmitoleyl, 5 μM): 2987 RLU; mean luminescent intensity (RLuc pDNA) (HCT116 cells; Myristoleyl, 10 μM): −83 RLU; mean luminescent intensity (RLuc pDNA) (HCT116 cells; Palmitoleyl, 10 μM): 41280 RLU; mean luminescent intensity (RLuc pDNA) (HCT116 cells; Petroselinyl, 10 μM): 9686 RLU; mean luminescent intensity (RLuc pDNA) (A549 cells; Palmitoleyl, 5 μM): 5366 RLU; mean luminescent intensity (RLuc pDNA) (A549 cells; Palmitoleyl, 15 μM): 12440 RLU; mean luminescent intensity (RLuc pDNA) (A549 cells; Petroselinyl, 15 μM): 7194 RLU"
Ac-RRK*K*RK*LRRLLRL-NH2 [13(3b)],893,446,338,590,97665,33115,100988,48097,128030,4005,−1204,2571,86,64,5548,34451,504,65487,11255,9759,"mean luminescent intensity (RLuc pDNA) (Hek293 cells; Dodecanal, 5 μM): 233706 RLU; mean fluorescence intensity after transfection of EGFP mRNA (HepG2 cells [2]; Palmitoleyl, 5 μM): 1176; mean fluorescence intensity after transfection of EGFP mRNA (HepG2 cells [2]; Palmitoleyl, 10 μM): −335; mean fluorescence intensity after transfection of EGFP mRNA (HepG2 cells [2]; Palmitoleyl, 15 μM): −37; mean fluorescence intensity after transfection of EGFP mRNA (HepG2 cells [2]; Petroselinyl, 10 μM): 189; mean luminescent intensity (RLuc pDNA) (ARPE19 cells; Dodecanal, 5 μM): 4597 RLU; mean luminescent intensity (RLuc pDNA) (HCT116 cells; Dodecanal, 5 μM): 101412 RLU; mean luminescent intensity (RLuc pDNA) (HCT116 cells; Dodecanal, 10 μM): 17841 RLU; mean luminescent intensity (RLuc pDNA) (HCT116 cells; Dodecanal, 15 μM): 3435 RLU; mean luminescent intensity (RLuc pDNA) (HCT116 cells; Oleyl, 5 μM): 18257 RLU; mean luminescent intensity (RLuc pDNA) (A549 cells; Dodecanal, 15 μM): 2061 RLU; mean luminescent intensity (RLuc pDNA) (A549 cells; Oleyl, 10 μM): 1493 RLU; mean luminescent intensity (RLuc pDNA) (A549 cells; Oleyl, 15 μM): 1440 RLU"
